From ChEMBL document CHEMBL1201862, “PubChem BioAssay data set” (2004)
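Cultured in 96-well plates, cells were exposed to test compound for 48 hours across five concentrations. GI50: concentration for 50% inhibition of growth.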 Activity calls are given as the source filed them. Cut-off read from the data, not from the text of the source: active = GI50 up to about 1.1 µM and inactive = higher.

Experiments:
Assay in all cases: DTP human tumour cell line panel, 48 h
[1] = tested on: MCF7
[2] = tested on: PC-3
[3] = tested on: UACC-62
[4] = tested on: MDA-MB-231
[5] = tested on: Hs-578T
[6] = tested on: HT-29
[7] = tested on: IGROV-1
[8] = tested on: SR
[9] = tested on: SNB-19
[10] = tested on: BT-549
[11] = tested on: EKVX
[12] = tested on: NCI-H23
[13] = tested on: MDA-MB-435
[14] = tested on: NCI-H226
[15] = tested on: TK-10
[16] = tested on: SN12C
[17] = tested on: COLO 205

| SMILES | GI50 [1] | GI50 [2] | GI50 [3] | GI50 [4] | GI50 [5] | GI50 [6] | GI50 [7] | GI50 [8] | GI50 [9] | GI50 [10] | GI50 [11] | GI50 [12] | GI50 [13] | GI50 [14] | GI50 [15] | GI50 [16] | GI50 [17] |
| --- | --- | --- | --- | --- | --- | --- | --- | --- | --- | --- | --- | --- | --- | --- | --- | --- | --- |
| N=C(N)c1ccc(/C=C/c2ccc(C(=N)N)cc2)cc1 | 96.6 µM (inactive) | 64.9 µM (inactive) | 97.9 µM (inactive) | > 100 µM (inactive) | 48 µM (inactive) | 93.1 µM (inactive) | 70.8 µM (inactive) | > 100 µM (inactive) | > 100 µM (inactive) | > 100 µM (inactive) | 46.3 µM (inactive) | 78.5 µM (inactive) | > 100 µM (inactive) | > 100 µM (inactive) | 24.5 µM (inactive) | 22.7 µM (inactive) |  |
| COc1ccc2oc(=O)c(-c3csc(C)n3)cc2c1 | > 100 µM (inactive) | > 100 µM (inactive) | 22.9 µM (inactive) | 24.7 µM (inactive) | 30.7 µM (inactive) | > 100 µM (inactive) | 49.4 µM (inactive) | > 100 µM (inactive) | 28.8 µM (inactive) | 15.8 µM (inactive) | 56.5 µM (inactive) |  | > 100 µM (inactive) | 29.2 µM (inactive) | 26 µM (inactive) | > 100 µM (inactive) | > 100 µM (inactive) |
| O=[N+]([O-])c1ccc(N/N=C(\c2ccccc2)c2ccccn2)nc1 | < 0.0492 µM (active) | 0.92 µM (active) | 2.5 µM (inactive) | 1 µM (active) | 4.29 µM (inactive) | 0.0253 µM (active) | 1.11 µM (active) | 1.48 µM (inactive) | 9.48 µM (inactive) | 15.5 µM (inactive) | 0.171 µM (active) | 0.845 µM (active) | 7.41 µM (inactive) |  |  | 0.429 µM (active) | < 0.0391 µM (active) |
| COc1ccc(/C=C2/CCS(=O)(=O)c3ccc(C)cc3C2=O)cc1OC | 8.38 µM (inactive) | 15.8 µM (inactive) | 5.97 µM (inactive) | 12.8 µM (inactive) | 11.5 µM (inactive) | 13.9 µM (inactive) | 6.4 µM (inactive) | 20.6 µM (inactive) | 14.1 µM (inactive) | 9.27 µM (inactive) | 13.7 µM (inactive) | 12.5 µM (inactive) | 12.5 µM (inactive) | 14.3 µM (inactive) | 13.6 µM (inactive) | 13.2 µM (inactive) | 14.2 µM (inactive) |
| CC(C)(C)c1ccc2c(c1)CNCCNCc1cc(C(C)(C)C)ccc1OCC1(CO2)COc2ccc(C(C)(C)C)cc2CNCCNCc2cc(C(C)(C)C)ccc2OC1 | 0.461 µM (active) | 1.58 µM (inactive) | 1.4 µM (inactive) | 0.394 µM (active) | 1.06 µM (active) | 0.665 µM (active) | 1.28 µM (inactive) | 0.129 µM (active) | 0.935 µM (active) | 1.71 µM (inactive) | 1.27 µM (inactive) | 0.948 µM (active) | 0.271 µM (active) | 1.55 µM (inactive) | 1.85 µM (inactive) | 0.404 µM (active) | 0.649 µM (active) |
| COc1ccc(OC)c2c1C=CC(Br)=CC2 | 0.295 µM (active) | 0.352 µM (active) | 0.137 µM (active) | 0.285 µM (active) | 0.224 µM (active) | 0.136 µM (active) | 0.279 µM (active) | 0.191 µM (active) | 0.611 µM (active) | 0.303 µM (active) | 0.309 µM (active) | 0.259 µM (active) | 0.239 µM (active) | 0.372 µM (active) | 0.292 µM (active) | 0.372 µM (active) | 0.314 µM (active) |
| COc1c(C)c(OC)c2c(c1O)[C@@H]1[C@@H]3Cc4c(OC)c(C)c(OC)c(O)c4[C@H](CNC(=O)c4ccc5ccccc5n4)N3[C@@H](C#N)[C@H](C2)N1C | 0.000424 µM (active) | 0.00234 µM (active) | 0.000411 µM (active) | 0.00159 µM (active) | 0.00124 µM (active) | 0.000893 µM (active) | 0.000147 µM (active) | 0.000105 µM (active) | 0.00569 µM (active) | 0.000377 µM (active) | 0.000232 µM (active) | 0.000459 µM (active) | 0.00116 µM (active) | 0.00143 µM (active) | 0.000444 µM (active) | 0.00103 µM (active) | 0.000891 µM (active) |
| CC(C)CC(C#CCCOC(=O)c1ccccc1)OC(=O)c1ccccc1 (centres undefined) | > 10 µM (inactive) | > 10 µM (inactive) | > 10 µM (inactive) | > 10 µM (inactive) | > 10 µM (inactive) | > 10 µM (inactive) | > 10 µM (inactive) | > 10 µM (inactive) | > 10 µM (inactive) | > 10 µM (inactive) | > 10 µM (inactive) | > 10 µM (inactive) | > 10 µM (inactive) | > 10 µM (inactive) | > 10 µM (inactive) | > 10 µM (inactive) |  |
| Cc1ccc(S(=O)(=O)N(CC(O)COc2ccccc2)c2c(F)c(F)c(F)c(F)c2F)cc1 (centres undefined) | 10.5 µM (inactive) | 13.6 µM (inactive) | 13.7 µM (inactive) | 12.8 µM (inactive) | 18.5 µM (inactive) | 16.2 µM (inactive) |  | 20.7 µM (inactive) | 18.5 µM (inactive) | 13.5 µM (inactive) | 17.9 µM (inactive) | 14.4 µM (inactive) | 16.4 µM (inactive) | 17.9 µM (inactive) | 24.7 µM (inactive) | 16.6 µM (inactive) | 16.3 µM (inactive) |
| Cc1cccc(-n2c(C)nc3ccc(NC4OC(CO)C(O)C(O)C4O)cc3c2=O)c1 (centres undefined) | > 100 µM (inactive) | > 100 µM (inactive) | > 100 µM (inactive) | > 100 µM (inactive) | > 100 µM (inactive) | > 100 µM (inactive) | > 100 µM (inactive) | 50.7 µM (inactive) | > 100 µM (inactive) | > 100 µM (inactive) | > 100 µM (inactive) | > 100 µM (inactive) | > 100 µM (inactive) | > 100 µM (inactive) | > 100 µM (inactive) | > 100 µM (inactive) | > 100 µM (inactive) |
| COC(=O)c1cc(C)n2c1CS[C@@H]2c1ccccc1 | 34 µM (inactive) | 40.5 µM (inactive) |  | 57.4 µM (inactive) | 45.1 µM (inactive) | 31.2 µM (inactive) | 44.4 µM (inactive) | 17.3 µM (inactive) | 66.1 µM (inactive) | 29.2 µM (inactive) | 32.2 µM (inactive) | 34.5 µM (inactive) | 19.1 µM (inactive) | 28.8 µM (inactive) | 66.4 µM (inactive) | 37.2 µM (inactive) | 26.9 µM (inactive) |
| O=C1C=C(OCCCCl)C(=O)c2c(O)ccc(O)c21 | 0.195 µM (active) | 1.93 µM (inactive) | 0.286 µM (active) | 1.74 µM (inactive) | 2.42 µM (inactive) | 0.581 µM (active) | 1.8 µM (inactive) | 0.871 µM (active) | 1.8 µM (inactive) | 1.09 µM (active) | 1.79 µM (inactive) | 0.237 µM (active) | 0.206 µM (active) | 1.84 µM (inactive) | 1.81 µM (inactive) | 0.35 µM (active) | 0.245 µM (active) |
| C[C@@H]1C[C@](O)([C@@H](C)Cl)C(=O)O[C@@H]2CCN3CC=C(COC(=O)[C@]1(C)O)[C@H]23 | > 100 µM (inactive) | > 100 µM (inactive) | > 100 µM (inactive) | > 100 µM (inactive) | > 100 µM (inactive) | > 100 µM (inactive) | > 100 µM (inactive) | > 100 µM (inactive) | > 10 µM (inactive) | > 100 µM (inactive) | > 100 µM (inactive) | > 10 µM (inactive) | > 100 µM (inactive) | > 100 µM (inactive) | > 100 µM (inactive) |  | > 100 µM (inactive) |
| Cc1nn(C(=O)c2ccc(Cl)cc2)c2c1C(c1cccc([N+](=O)[O-])c1)SC(=N)N2 (centres undefined) | > 10 µM (inactive) | > 10 µM (inactive) | > 10 µM (inactive) | > 10 µM (inactive) | > 10 µM (inactive) | > 10 µM (inactive) | > 10 µM (inactive) | > 10 µM (inactive) | > 10 µM (inactive) | > 10 µM (inactive) | > 10 µM (inactive) | > 10 µM (inactive) | > 10 µM (inactive) | > 10 µM (inactive) | > 10 µM (inactive) | > 10 µM (inactive) | > 10 µM (inactive) |
| COc1nc(N)nc2c1ncn2C1CC(O)C(CO)O1 (centres undefined) | > 100 µM (inactive) | > 100 µM (inactive) | > 100 µM (inactive) | > 100 µM (inactive) | > 100 µM (inactive) | > 100 µM (inactive) | > 100 µM (inactive) | > 100 µM (inactive) | > 100 µM (inactive) | > 100 µM (inactive) | > 100 µM (inactive) | > 100 µM (inactive) | > 100 µM (inactive) | > 100 µM (inactive) | > 100 µM (inactive) | > 100 µM (inactive) | > 100 µM (inactive) |
| N=C(N)c1ccc(/N=N/c2c(O)ccc3cc(O)ccc23)cc1 | > 100 µM (inactive) | > 100 µM (inactive) | > 100 µM (inactive) | > 100 µM (inactive) | > 100 µM (inactive) | > 100 µM (inactive) | > 100 µM (inactive) | 24.7 µM (inactive) | > 100 µM (inactive) | > 100 µM (inactive) | > 100 µM (inactive) |  | > 100 µM (inactive) | > 100 µM (inactive) | > 100 µM (inactive) |  | > 100 µM (inactive) |
| c1ccc(-c2nc(-c3ccccc3)c(-c3ccccc3)[nH]2)cc1 | 70.3 µM (inactive) | > 100 µM (inactive) | > 94.4 µM (inactive) | > 72.6 µM (inactive) | 23.9 µM (inactive) | > 94.6 µM (inactive) | > 91.6 µM (inactive) | 17.5 µM (inactive) | > 100 µM (inactive) | > 100 µM (inactive) | > 83.6 µM (inactive) | > 100 µM (inactive) | > 100 µM (inactive) | > 100 µM (inactive) | > 100 µM (inactive) | > 87.5 µM (inactive) | > 100 µM (inactive) |
